Test results reported in US20020035061A1, “COMPOSITIONS AND METHODS FOR TREATING INFECTIONS USING CATIONIC PEPTIDES ALONE OR IN COMBINATION WITH ANTIBIOTICS” (priority 1996, published 2002).
Like-named read-outs stand apart in the source and are kept apart here.

Legend:
Format in all cases: cell-based
E. faecium = settings: agarose dilution
S. pneumoniae = test: Agarose dilution assay (MIC); settings: for MIC: S. pneumoniae strain SBSPN3; for Peptide MIC values: agarose dilution
P. vulgaris = test: Agarose dilution assay (MIC); settings: agarose dilution; P. vulgaris ATCC 13315
E. cloacae = system: E. cloacae
S. aureus = settings: for Peptide MIC values: agarose dilution
S. maltophilia = system: S. maltophilia
H. influenzae = test: Agarose dilution assay (MIC)
[1] = system: inherently resistant microorganisms; test: microbe, parasite or virus in culture
K. pneumoniae = system: K. pneumoniae
S. marcescens = settings: for Peptide MIC values: agarose dilution
E. faecalis = system: E. faecalis
S. epidermidis = S. epidermidis strain SE010
E. coli = settings: for Peptide MIC values: agarose dilution
bacterial isolates = test: microbe, parasite or virus in culture
P. aeruginosa = settings: for Peptide MIC values: agarose dilution
A. calcoaceticus = system: A. calcoaceticus
[2] = system: microorganisms with acquired resistance; test: microbe, parasite or virus in culture; settings: for Peptide MIC Alone: Piperacillin section; for FIC: peptide + Piperacillin
S. pyogenes = test: Agarose dilution assay (MIC); settings: S. pyogenes strain SPY005

ILKKWPWWPWRK [MBI 11B4CN]
Peptide MIC values (E. faecium): 8 µg/mL | MIC (S. pneumoniae): 128 µg/mL | Peptide MIC values (S. pneumoniae; S. pneumoniae 406LE8): 128 µg/mL | Peptide MIC values (S. pneumoniae; S. pneumoniae 60120): >128 µg/mL | Peptide MIC values (S. pneumoniae; S. pneumoniae ATCC 49619): 64 µg/mL | Peptide MIC values (P. vulgaris): >128 µg/mL | MIC (E. cloacae; E. cloacae strain ECL007): >128 µg/mL | MIC (S. aureus; S. aureus strain SA004): 2 µg/mL | Peptide MIC values (S. aureus; S. aureus ATCC 29213): 1 µg/mL | Peptide MIC values (S. aureus; S. aureus MRSA9): 4 µg/mL | Peptide MIC values (S. aureus; S. aureus MRSA13): 32 µg/mL | Peptide MIC values (S. aureus; S. aureus MRSA17): 8 µg/mL | Peptide MIC values (S. aureus; S. aureus SA206): 16 µg/mL | MIC (S. maltophilia; S. maltophilia strain SMA002): 64 µg/mL | MIC (H. influenzae; H. influenzae strain HIN002): >128 µg/mL | Peptide MIC + Mupirocin ([1]; E. coli): 8 µg/mL | Peptide MIC Alone ([1]; E. coli, Mupirocin section): 16 µg/mL | FIC ([1]; peptide + Mupirocin, E. coli): 0.53 | MIC (K. pneumoniae; K. pneumoniae strain KP002): 128 µg/mL | MIC (S. marcescens; S. marcescens strain SBSM2): >128 µg/mL | MIC (S. marcescens; S. marcescens strain SMS004): >128 µg/mL | Peptide MIC values (S. marcescens; S. marcescens SM76): >128 µg/mL | Peptide MIC values (S. marcescens; S. marcescens SM82): >128 µg/mL | MIC (E. faecalis; E. faecalis strain EFS002): 16 µg/mL | MIC (S. epidermidis): 4 µg/mL | MIC (E. coli; E. coli strain ECO003): 16 µg/mL | Peptide MIC values (E. coli; E. coli ATCC 25922): 32 µg/mL | Peptide MIC values (E. coli; E. coli ESS): 8 µg/mL | Peptide MIC values (E. coli; E. coli NCTC 10418): 8 µg/mL | Mupirocin MIC + Peptide (bacterial isolates; E. coli SBECO1): 30 µg/mL | Peptide MIC + Mupirocin (bacterial isolates; E. coli SBECO1): 0.5 µg/mL | Peptide MIC Alone (bacterial isolates; E. coli SBECO1, Mupirocin section): 8 µg/mL | Mupirocin MIC + Peptide (bacterial isolates; E. coli SBECO2): 30 µg/mL | Peptide MIC + Mupirocin (bacterial isolates; E. coli SBECO2): 2 µg/mL | Peptide MIC Alone (bacterial isolates; E. coli SBECO2, Mupirocin section): 32 µg/mL | FIC (bacterial isolates; peptide + Mupirocin, E. coli SBECO1): 0.36 | FIC (bacterial isolates; peptide + Mupirocin, E. coli SBECO2): 0.09 | MIC (P. aeruginosa; P. aeruginosa strain PA006): >128 µg/mL | Peptide MIC values (P. aeruginosa; P. aeruginosa ATCC 27853): >128 µg/mL | Peptide MIC values (P. aeruginosa; P. aeruginosa NCTC 10662): >128 µg/mL | MIC (A. calcoaceticus; A. calcoaceticus strain AC001): >128 µg/mL

ILRWVWWVWRRK [MBI 11F4CN]
MIC (S. pneumoniae): >128 µg/mL | Peptide MIC + Piperacillin ([2]; E. cloacae 10): 8 µg/mL | Piperacillin MIC + Peptide ([2]; E. cloacae 10): 4 µg/mL | Peptide MIC Alone ([2]; E. cloacae 10): 16 µg/mL | Peptide MIC + Piperacillin ([2]; H. influenzae 1): 64 µg/mL | Piperacillin MIC + Peptide ([2]; H. influenzae 1): 16 µg/mL | Peptide MIC Alone ([2]; H. influenzae 1): >128 µg/mL | Peptide MIC + Piperacillin ([2]; P. aeruginosa 7): 8 µg/mL | Piperacillin MIC + Peptide ([2]; P. aeruginosa 7): 64 µg/mL | Peptide MIC Alone ([2]; P. aeruginosa 7): 64 µg/mL | Peptide MIC + Piperacillin ([2]; P. aeruginosa 23): 4 µg/mL | Piperacillin MIC + Peptide ([2]; P. aeruginosa 23): 64 µg/mL | Peptide MIC Alone ([2]; P. aeruginosa 23): 64 µg/mL | Peptide MIC + Piperacillin ([2]; S. maltophilia 2): 4 µg/mL | Piperacillin MIC + Peptide ([2]; S. maltophilia 2): 16 µg/mL | Peptide MIC Alone ([2]; S. maltophilia 2): 16 µg/mL | Peptide MIC + Piperacillin ([2]; S. marcescens 1): 4 µg/mL | Piperacillin MIC + Peptide ([2]; S. marcescens 1): 16 µg/mL | Peptide MIC Alone ([2]; S. marcescens 1): >128 µg/mL | FIC ([2]; E. cloacae 10): 0.52 | FIC ([2]; H. influenzae 1): 0.75 | FIC ([2]; P. aeruginosa 7): 0.38 | FIC ([2]; P. aeruginosa 23): 0.31 | FIC ([2]; S. maltophilia 2): 0.50 | FIC ([2]; S. marcescens 1): 0.08 | MIC (E. cloacae; E. cloacae strain ECL006): 16 µg/mL | MIC, Peptide (S. aureus; S. aureus SA014, unmodified parent peptide): 2 µg/mL | MIC (S. aureus; S. aureus strain SA007): 1 µg/mL | MIC, Peptide (S. maltophilia; S. maltophilia SMA002, unmodified parent peptide): 16 µg/mL | MIC (S. maltophilia; S. maltophilia strain SMA006): 16 µg/mL | MIC (H. influenzae; H. influenzae strain HIN003): >128 µg/mL | Peptide MIC + Piperacillin ([1]; S. aureus MRSA): 2 µg/mL | Peptide MIC Alone ([1]; S. aureus MRSA, Piperacillin section): 4 µg/mL | FIC ([1]; peptide + Piperacillin, S. aureus MRSA): 0.53 | MIC, Peptide (K. pneumoniae; K. pneumoniae KP001, unmodified parent peptide): 4 µg/mL | MIC (K. pneumoniae; K. pneumoniae strain KP001): 8 µg/mL | MIC (S. marcescens; S. marcescens strain SBSM1): >128 µg/mL | MIC, Peptide (E. faecalis; E. faecalis EFS008, unmodified parent peptide): 2 µg/mL | MIC (E. faecalis; E. faecalis strain EFS004): 8 µg/mL | MIC (S. epidermidis): 2 µg/mL | MIC, Peptide (E. coli; E. coli ECO005, unmodified parent peptide): 8 µg/mL | MIC (E. coli; E. coli strain ECO001): 8 µg/mL | MIC (S. pyogenes): 32 µg/mL | Peptide MIC + Piperacillin (bacterial isolates; E. cloacae 10): 8 µg/mL | Piperacillin MIC + Peptide (bacterial isolates; E. cloacae 10): 4 µg/mL | Peptide MIC Alone (bacterial isolates; E. cloacae 10, Piperacillin section): 16 µg/mL | Peptide MIC + Piperacillin (bacterial isolates; H. influenzae SB1): 0.125 µg/mL | Piperacillin MIC + Peptide (bacterial isolates; H. influenzae SB1): 0.25 µg/mL | Peptide MIC Alone (bacterial isolates; H. influenzae SB1, Piperacillin section): >128 µg/mL | Peptide MIC + Piperacillin (bacterial isolates; P. aeruginosa 7): 8 µg/mL | Piperacillin MIC + Peptide (bacterial isolates; P. aeruginosa 7): 64 µg/mL | Peptide MIC Alone (bacterial isolates; P. aeruginosa 7, Piperacillin section): 64 µg/mL | Piperacillin MIC + Peptide (bacterial isolates; P. aeruginosa 23): 64 µg/mL | Peptide MIC Alone (bacterial isolates; P. aeruginosa 23, Piperacillin section): 64 µg/mL | Peptide MIC + Piperacillin (bacterial isolates; S. aureus 19 MRSA): 2 µg/mL | Piperacillin MIC + Peptide (bacterial isolates; S. aureus 19 MRSA): 4 µg/mL | Peptide MIC Alone (bacterial isolates; S. aureus 19 MRSA, Piperacillin section): 4 µg/mL | Peptide MIC + Piperacillin (bacterial isolates; S. maltophilia 2): 0.5 µg/mL | Piperacillin MIC + Peptide (bacterial isolates; S. maltophilia 2): 32 µg/mL | Peptide MIC Alone (bacterial isolates; S. maltophilia 2, Piperacillin section): 16 µg/mL | Peptide MIC + Piperacillin (bacterial isolates; S. marcescens 1): 0.5 µg/mL | Piperacillin MIC + Peptide (bacterial isolates; S. marcescens 1): 64 µg/mL | Peptide MIC Alone (bacterial isolates; S. marcescens 1, Piperacillin section): >128 µg/mL | FIC (bacterial isolates; peptide + Piperacillin, E. cloacae 10): 0.52 | FIC (bacterial isolates; peptide + Piperacillin, H. influenzae SB1): 0.50 | FIC (bacterial isolates; peptide + Piperacillin, P. aeruginosa 7): 0.38 | FIC (bacterial isolates; peptide + Piperacillin, P. aeruginosa 23): 0.31 | FIC (bacterial isolates; peptide + Piperacillin, S. aureus 19 MRSA): 0.53 | FIC (bacterial isolates; peptide + Piperacillin, S. maltophilia 2): 0.53 | FIC (bacterial isolates; peptide + Piperacillin, S. marcescens 1): 0.25 | MIC, Peptide (P. aeruginosa; P. aeruginosa PA004, unmodified parent peptide): 32 µg/mL | MIC (P. aeruginosa; P. aeruginosa strain PA020): 32 µg/mL | MIC, Peptide (A. calcoaceticus; A. calcoaceticus AC002, unmodified parent peptide): 4 µg/mL | MIC (A. calcoaceticus; A. calcoaceticus strain AC003): 16 µg/mL
